Data reported in ChEMBL document CHEMBL1201862, “PubChem BioAssay data set” (2004).
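Assay format: 96-well plates, 48-hour exposure. GI50: concentration for 50% inhibition of growth.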 Active and inactive are the calls of the source. Rule as the data show it: active = GI50 up to about 1.1 µM and inactive = higher.

Assays:
Assay in all cases: NCI-60 cell line screen, 48 h
RPMI-8226 = test system: RPMI-8226
HT-29 = test system: HT-29
HCC 2998 = test system: HCC 2998
SR = test system: SR
SN12C = test system: SN12C
TK-10 = test system: TK-10
SK-MEL-2 = test system: SK-MEL-2
HL-60 = test system: HL-60
UO-31 = test system: UO-31
SF-539 = test system: SF-539
ACHN = test system: ACHN
IGROV-1 = test system: IGROV-1
OVCAR-4 = test system: OVCAR-4
SK-MEL-5 = test system: SK-MEL-5
NCI-H23 = test system: NCI-H23
SK-MEL-28 = test system: SK-MEL-28
A498 = test system: A498
HOP-92 = test system: HOP-92
KM12 = test system: KM12

Row | SMILES | GI50 (RPMI-8226) | GI50 (HT-29) | GI50 (HCC 2998) | GI50 (SR) | GI50 (SN12C) | GI50 (TK-10) | GI50 (SK-MEL-2) | GI50 (HL-60) | GI50 (UO-31) | GI50 (SF-539) | GI50 (ACHN) | GI50 (IGROV-1) | GI50 (OVCAR-4) | GI50 (SK-MEL-5) | GI50 (NCI-H23) | GI50 (SK-MEL-28) | GI50 (A498) | GI50 (HOP-92) | GI50 (KM12)
1 | Oc1c2c(nc3cc4c(cc13)OCO4)-c1ccccc1CC2 | > 100 µM (inactive) | > 100 µM (inactive) | > 100 µM (inactive) | > 100 µM (inactive) | > 100 µM (inactive) | > 100 µM (inactive) | > 100 µM (inactive) | > 100 µM (inactive) | > 100 µM (inactive) | > 100 µM (inactive) | > 100 µM (inactive) | > 100 µM (inactive) | > 100 µM (inactive) | > 100 µM (inactive) | > 100 µM (inactive) | > 100 µM (inactive) | > 100 µM (inactive) |  | 
2 | CN(C)c1ccc(/C=C(\C#N)C(=O)c2ccccc2)cc1Br | 25.8 µM (inactive) | > 100 µM (inactive) | > 100 µM (inactive) | 38.5 µM (inactive) | > 100 µM (inactive) | > 100 µM (inactive) | > 100 µM (inactive) | 25.7 µM (inactive) | > 100 µM (inactive) | > 100 µM (inactive) | > 100 µM (inactive) |  | > 100 µM (inactive) | 96.2 µM (inactive) | > 100 µM (inactive) | 46.5 µM (inactive) |  | > 100 µM (inactive) | > 100 µM (inactive)
3 | N/N=C1\c2ccccc2C2/C(=N\N)c3ccccc3C12 (configuration not stated) | > 100 µM (inactive) | > 100 µM (inactive) | > 100 µM (inactive) |  | > 100 µM (inactive) | > 100 µM (inactive) | > 100 µM (inactive) | > 100 µM (inactive) | > 10 µM (inactive) | > 100 µM (inactive) | > 100 µM (inactive) | > 100 µM (inactive) | > 100 µM (inactive) | > 100 µM (inactive) | > 100 µM (inactive) | > 100 µM (inactive) |  | > 100 µM (inactive) | > 100 µM (inactive)
4 | Cn1ncnc1CCc1ccccc1 | > 100 µM (inactive) | > 100 µM (inactive) |  | > 100 µM (inactive) | > 100 µM (inactive) | > 100 µM (inactive) | > 100 µM (inactive) | > 100 µM (inactive) | > 100 µM (inactive) | > 100 µM (inactive) | > 100 µM (inactive) | > 100 µM (inactive) | > 100 µM (inactive) | > 100 µM (inactive) | > 100 µM (inactive) | > 100 µM (inactive) | > 100 µM (inactive) | > 100 µM (inactive) | > 100 µM (inactive)
5 | N#CCCN(CCC#N)c1ccc(/C=C2\N=C(COc3ccc(Cl)cc3Cl)OC2=O)cc1 | > 100 µM (inactive) | > 100 µM (inactive) | > 100 µM (inactive) |  | > 100 µM (inactive) | > 100 µM (inactive) | > 100 µM (inactive) | > 100 µM (inactive) | > 100 µM (inactive) | > 100 µM (inactive) |  | > 100 µM (inactive) | > 100 µM (inactive) | > 100 µM (inactive) | > 100 µM (inactive) | > 100 µM (inactive) | > 100 µM (inactive) |  | > 100 µM (inactive)
6 | N=C(c1ccccc1)N1CCCCC1 |  | > 100 µM (inactive) | > 100 µM (inactive) | > 100 µM (inactive) | > 100 µM (inactive) | > 100 µM (inactive) | > 100 µM (inactive) | > 100 µM (inactive) | > 100 µM (inactive) | > 100 µM (inactive) |  |  | > 100 µM (inactive) |  | > 100 µM (inactive) | > 100 µM (inactive) |  | < 0.01 µM (active) | > 100 µM (inactive)
7 | C[C@@H]1C[C@]2(C[C@@H](C)C3[C@@H](CC4(C)[C@@H]5CCC6C(C)(C)OC(=O)C=C[C@]67C[C@@]5(CC[C@]34C)OO7)O2)OC1=O (some centres not stated) | > 100 µM (inactive) | > 100 µM (inactive) | > 100 µM (inactive) | > 100 µM (inactive) | > 100 µM (inactive) | 52.1 µM (inactive) | 50.4 µM (inactive) | 46.2 µM (inactive) | 51.8 µM (inactive) | 35.8 µM (inactive) | 92.5 µM (inactive) | 56.2 µM (inactive) | 24.8 µM (inactive) | 37.9 µM (inactive) | > 100 µM (inactive) | 66.7 µM (inactive) |  |  | 
8 | Cc1nnc([C@@]2(C)CC[C@H]3[C@@H](CC=C4C[C@@H](O)CC[C@@]43C)[C@@H]2CC#N)o1 | 97.3 µM (inactive) | > 100 µM (inactive) |  | > 100 µM (inactive) | > 100 µM (inactive) | > 100 µM (inactive) | > 100 µM (inactive) | > 100 µM (inactive) | > 100 µM (inactive) | > 100 µM (inactive) | > 100 µM (inactive) |  | > 100 µM (inactive) | > 100 µM (inactive) | > 100 µM (inactive) |  | > 100 µM (inactive) | > 100 µM (inactive) | > 100 µM (inactive)
9 | COc1cc(Nc2cnc3ccc(N)cc3n2)cc(OC)c1OC | 16.6 µM (inactive) | 48.9 µM (inactive) | > 100 µM (inactive) |  | > 100 µM (inactive) | > 83.6 µM (inactive) | > 100 µM (inactive) | 17.7 µM (inactive) | 37.8 µM (inactive) |  | > 100 µM (inactive) | 80.4 µM (inactive) | > 100 µM (inactive) | 16.9 µM (inactive) | 98.6 µM (inactive) | 78.2 µM (inactive) | > 100 µM (inactive) | 61.2 µM (inactive) | 39.4 µM (inactive)
10 | O=C1c2c(c3c4ccccc4[nH]c3c3[nH]c4ccccc4c23)C(=O)N1Cc1ccccc1 | 2.36 µM (inactive) | 4.04 µM (inactive) | 4.27 µM (inactive) |  | 2.1 µM (inactive) | 4.25 µM (inactive) | 3.2 µM (inactive) |  | 2.53 µM (inactive) | 2.37 µM (inactive) | 2.87 µM (inactive) | 4.09 µM (inactive) | 3.06 µM (inactive) | 1.85 µM (inactive) | 2.08 µM (inactive) | 2.89 µM (inactive) |  | 2.43 µM (inactive) | 3.08 µM (inactive)
11 | CC(C)(C)c1ccccc1NS(=O)(=O)c1ccccc1 | 60.8 µM (inactive) | 66.7 µM (inactive) | > 100 µM (inactive) |  | 62.4 µM (inactive) | > 100 µM (inactive) | > 100 µM (inactive) | 36.9 µM (inactive) | 30.1 µM (inactive) | > 100 µM (inactive) | > 100 µM (inactive) | > 100 µM (inactive) | 62.4 µM (inactive) | 42.4 µM (inactive) | > 100 µM (inactive) | > 100 µM (inactive) | > 100 µM (inactive) |  | 65 µM (inactive)
12 | Nc1nc(-c2ccco2)cc(-c2ccco2)n1 | > 100 µM (inactive) | > 100 µM (inactive) |  | > 100 µM (inactive) | > 100 µM (inactive) | > 100 µM (inactive) | > 100 µM (inactive) | > 100 µM (inactive) | 42.7 µM (inactive) | > 100 µM (inactive) | > 100 µM (inactive) | > 100 µM (inactive) | > 100 µM (inactive) | > 100 µM (inactive) | > 100 µM (inactive) | > 100 µM (inactive) |  |  | > 100 µM (inactive)
13 | C/C=C(/CCC1NCCC2c3ccccc3NC12)[Si](C)(C)C (configuration not stated) | 2.84 µM (inactive) | 2.83 µM (inactive) | 2.02 µM (inactive) | 2.9 µM (inactive) | 11.7 µM (inactive) | 15 µM (inactive) | 13.8 µM (inactive) | 2.12 µM (inactive) | 7.08 µM (inactive) | 15.8 µM (inactive) | 14.2 µM (inactive) | 12.8 µM (inactive) | 7.57 µM (inactive) | 12.8 µM (inactive) | 13.8 µM (inactive) | 5.2 µM (inactive) |  | 5.58 µM (inactive) | 4.52 µM (inactive)
14 | O=C(NC1=NC2C=CC([N+](=O)[O-])=CC2S1)C(=O)Nn1c(S)nc2ccccc2c1=O (configuration not stated) | 50.6 µM (inactive) | > 100 µM (inactive) | > 100 µM (inactive) |  | > 100 µM (inactive) | 63 µM (inactive) | > 100 µM (inactive) | 56.4 µM (inactive) | 27.7 µM (inactive) | > 100 µM (inactive) | 24.1 µM (inactive) | 21 µM (inactive) | 27.4 µM (inactive) | 88.1 µM (inactive) | 40.7 µM (inactive) | > 100 µM (inactive) | 30.4 µM (inactive) | 29.4 µM (inactive) | > 100 µM (inactive)
15 | CN(C)c1nnnn1-c1c(N)n(C)c(=O)n(C)c1=O | > 100 µM (inactive) | > 100 µM (inactive) | > 100 µM (inactive) |  | > 100 µM (inactive) | > 100 µM (inactive) | > 100 µM (inactive) | > 100 µM (inactive) | > 100 µM (inactive) | > 100 µM (inactive) | > 100 µM (inactive) | > 100 µM (inactive) | > 100 µM (inactive) | > 100 µM (inactive) | > 100 µM (inactive) | > 100 µM (inactive) | > 100 µM (inactive) | > 100 µM (inactive) | > 100 µM (inactive)
16 | CCOc1ccccc1/N=N/c1ccc2oc(=O)c(C(=O)Nc3cccc(C)c3)cc2c1 | 24.5 µM (inactive) | 36.2 µM (inactive) | 31.3 µM (inactive) |  | 36.3 µM (inactive) | 48.3 µM (inactive) | 19.8 µM (inactive) | 10.2 µM (inactive) | 16.6 µM (inactive) | 25.8 µM (inactive) |  | 39.5 µM (inactive) | 28.6 µM (inactive) | 15.1 µM (inactive) | 21.4 µM (inactive) | 26 µM (inactive) | 42.5 µM (inactive) |  | 30 µM (inactive)
